Measured values as given in patent US9682928B2 (NeuroPro Therapeutics, Inc., priority 2009, dated 2017).
Where two headings read alike, the source gives them in different places.

What was measured:
Sprague-Dawley rats = experiment: Epileptiform activity induced by i.v. kainic acid in urethane-anesthetized rats; format: in vivo, rat; conditions: intravenous, cumulative dose 40-60 mg/kg
Experimental: Body temperature was monitored using a rectal temperature probe and maintained at 35-37° C. with a heating pad; heart rate (EKG) was continuously monitored. The jugular vein was cannulated on one side for intravenous drug administration. Rats were placed in a Kopf stereotaxic device (with the top of the skull level), and a bipolar stainless-steel microelectrode insulated to 0.5 mm of the tip was inserted to a depth of 0.5-1.2 mm from the cortical surface to record electroencephalographic (EEG) activity in the fronto-parietal cortex. In some experiments, a 2M NaCl-containing pipette was lowered to a depth of 2.5-3.0 mm to record hippocampal EEG. Data were stored on VHS videotape and analyzed off-line.
Following the surgical preparation and electrode placement, animals were allowed to recover for 30 minutes before the experiments were initiated with an injection of kainic acid (10-12 mg/kg i.v.). […] Experiments were terminated with the intravenous administration of urethane. Animal care was in accordance with NIH guidelines and approved by the University of Washington Animal Care Committee.

rats [1] = experiment: Contextual fear conditioning in rats; format: in vivo, rat; conditions: I.V.; furosemide 100 mg/kg, bumetanide 50 mg/kg
Experimental: Contextual fear conditioning involves pairing an aversive event, in this case moderate foot shock, with a distinctive environment. The strength of the fear memory is assessed using freezing, a species-typical defensive reaction in rats, marked by complete immobility, except for breathing. […] However, if they are allowed to explore the distinctive environment sometime before the immediate shock, they show intense anxiety and fear when placed back into the same environment. By procedurally dividing contextual fear conditioning into two phases, the effects of treatments on memory for the context (specifically a hippocampus based process) from learning the association between context and shock or experiencing the aversiveness of the shock (which depend upon emotional response circuitry including amygdala) were separately studied. […] The experiment employed 24 rats. […] Each rat was again placed into the same environment for 8 min during which time freezing was measured, as an index of Pavlovian conditioned fear. […] Measurement of freezing was accomplished through an overhead video camera connected to the microcomputer and was automatically scored using a specialty piece of software, FreezeFrame (OER Inc., Reston, Va.) Total freezing time was analyzed in a one-way analysis of variance (ANOVA) test, with drug dose as the […] factor.

rats [2] = experiment: Fear potentiated startle (FPS) test in rats; format: in vivo, rat; conditions: i.v.; furosemide 100 mg/kg, bumetanide 70 mg/kg
Experimental: FPS is a commonly used assessment of therapeutic value of anxiolytic compounds in the rat. Rats received a 30 min period of habituation to the FPS apparatus. 24-hr later baseline startle amplitudes were collected. The rats will be divided into two matched groups based on baseline startle amplitudes. Following baseline startle amplitude collection 20 light/shock pairings were delivered on 2 sessions over 2 consecutive days (i.e., 10 light/shock pairings per day). On the final day, one group of rats received an injection (i.v.) of a bumetanide analog and the other group received vehicle only. Immediately following injections, startle amplitudes were assessed during startle alone trials and startle plus fear (light followed by startle) trials. Fear potentiated startle (light+startle amplitudes minus startle alone amplitudes) was compared between the treatment groups.
Animals were trained and tested in four identical stabilimeter devices (Med-Associates). Briefly, each rat was placed in a small Plexiglas cylinder. The floor of each stabilimeter consists of four 6-mm-diameter stainless steel bars spaced 18 mm apart through which shock can be delivered. Cylinder movements result in displacement of an accelerometer where the resultant voltage is proportional to the velocity of the cage displacement. Startle amplitude is defined as the maximum accelerometer voltage that occurs during the first 0.25 sec after the startle stimulus is delivered. The analog output of the accelerometer is amplified, digitized on a scale of 0-4096 units and stored on a microcomputer. Each stabilimeter is enclosed in a ventilated, light-, and sound-attenuating box. All sound level measurements were made with a Precision Sound Level Meter. The noise of a ventilating fan attached to a sidewall of each wooden box produces an overall background noise level of 64 dB. The startle stimulus is a 50 ms burst of white noise (5 ms rise-decay time) generated by a white noise generator. The visual conditioned stimulus used was illumination of a light bulb adjacent to the white noise source. The unconditioned stimulus was a 0.6 mA foot shock with duration of 0.5 sec, generated by four constant-current shockers located outside the chamber. The presentation and sequencing of all stimuli were under the control of the microcomputer.
FPS procedures consisted of 5 days of testing; during days 1 and 2 baseline startle responses were collected, days 3 and 4 light/shock pairings were delivered, day 5-testing for fear potentiated startle was conducted.
Matching. On the first two days all rats were placed in the Plexiglas cylinders and 3 min later presented with 30 startle stimuli at a 30 sec interstimulus interval. An intensity of 105 dB was used. […]

primate = experiment: Acute primate seizure models; conditions: in vivo
Description: FIG. 13 depicts epileptiform spikes and bursts generated using software for the automatic quantification epileptiform activity. FIG. 13A depicts after-discharge activity that was elicited by 4 seconds of electrical stimulation to primate sensory cortex. The software developed by Haglund and Hochman (2007) finds the envelope around a burst of spikes and calculates the duration of the burst, the number of spikes within the burst, and the average spike amplitude of all spikes comprising the burst.
FIG. 13B depicts a typical spike generated by an acute bicuculline focus in primate motor cortex. The bicuculline model generates epileptiform activity that is similar to spontaneous interictal spiking in human subjects. Analysis of the data by the software identifies the time of occurrence of each spike and its peak-to-peak amplitude. This software can automatically process entire data sets consisting of hours of recorded data from multiple traces and generate an output of the data. Statistical analysis of data sets from multiple experiments can then be used to analyze the effects of various treatments (e.g., compounds that suppress epliptiform activity). See Haglund and Hochman (2007) “Imaging of Intrinsic Optical Signals in Primate Cortex during Epileptiform Activity.” Epilepsia 48(Suppl. 4): 65-74; See also Haglund and Hochman (Feb. 23, 2005) J. Neurophysiol. 94: 907-918.

human subjects = conditions: cited from earlier work

Experimental for rat hippocampal slices: Sprague-Dawley rats (males and females; 25-35 days old) were decapitated, the top of the skull was rapidly removed, and the brain chilled with ice-cold oxygenated slicing medium. […] A hemisphere of brain containing hippocampus was blocked and glued (cyanoacrylic adhesive) to the stage of a Vibroslicer (Frederick Haer, Brunsick, Me.). […] In the recording chamber, the slices were perfused with oxygenated recording medium at 34-35° C. […] In most slice experiments, simultaneous extracellular field electrode recordings were obtained from CA1 and CA3 areas. A bipolar tungsten stimulating electrode was placed on the Schaffer collaterals to evoke synaptically-driven field responses in CA1. Stimuli consisted of 100-300 μsec duration pulses at an intensity of four times the population-spike threshold. After discharges were evoked by a 2 second train of such stimuli delivered at 60 Hz. […] The tissue was allowed to recover for 10 minutes between stimulation trials. In each experiment, the initial response of CA1 to synaptic input was first tested by recording the field potential evoked by a single stimulus pulse. […] Rat hippocampal slices, prepared as described above, were perfused with a high-K^+ solution until extended periods of spontaneous interictal-like bursting were recorded simultaneously in CA3 (top traces) and CA1 (lower traces) pyramidal cell regions (FIGS. 18A and 18B). […] Hippocampal slices were prepared from Sprague-Dawley adult rats as described previously. Transverse hippocampal slices 100 μm thick were cut with a vibrating cutter. Slices typically contained the entire hippocampus and subiculum. After cutting, slices were stored in an oxygenated holding chamber at room temperature for at least one hour before recording. […] In some experiments, normal or low-chloride medium was used containing bicuculline.

Compound: NS(=O)(=O)c1cc(C(=O)O)c(NCc2ccco2)cc1Cl [Furosemide]
- Kainic acid-evoked seizure activity (electrical status epilepticus) (Sprague-Dawley rats): blocked seizure activity
- Latency to block of seizure activity (Sprague-Dawley rats): 30 to 45 min
- Freezing vs vehicle alone (rats [1]): significantly less freezing
- Difference score on the test day vs vehicle alone (rats [2]): statistically significantly lower difference score
- Difference score one week after treatment vs vehicle alone (rats [2]): higher difference score
- Suppression of epileptiform activity (primate): suppresses epileptiform activity
- Minimum concentration required to block both the after discharges and optical changes (rat hippocampal slices): 1.25 mM
- Latency to block of bursting (rat hippocampal slices; 0-Ca2+ experiments, 5 mM furosemide): 15 to 20 min
- Stimulation-evoked after discharge activity and optical changes (rat hippocampal slices; 2.5 mM furosemide, 20 minutes of perfusion): blocked
- Spontaneous bursts in high-K+ (10 mM) medium (rat hippocampal slices; 2.5 mM furosemide, after 45 minutes of perfusion): blocked in a reversible manner
- Latency to block of bursting (rat hippocampal slices; all other protocols, 2.5 mM furosemide): 20 to 60 min
- Anticonvulsant resistant bursts after 3 hours of 0-Mg medium (rat hippocampal slices; one hour after the addition of furosemide): blocked
- Average reduction in the duration of stimulation-evoked after-discharge activity (human subjects; 8 patients): 85%
- Average reduction in spiking frequency (human subjects; five patients, 20 mg intravenous bolus): approximately 60%
- Mean interspike interval following furosemide treatment (human subjects; five patients, 9.6 s prior to furosemide): 21.9 s
- Patients with complete blockade of after-discharge activity (human subjects; of 8 patients): 4 patients
- Patients with reduction by more than 50% of duration and amplitude of after-discharge activity (human subjects; of 8 patients): 4 patients
